# Data published in ChEMBL document CHEMBL4002627, “Quinolidene based monocarbonyl curcumin analogues as promising antimycobacterial agents: Synthesis and molecular docking study” (Bioorg Med Chem Lett, 2017).
# Key:
# [1] = Cytotoxicity against human HCT116 cells assessed as growth inhibition at 30 ug/ml after 48 hrs by MTT assay relative to control; format: cell-based, HCT-116; conditions: read-out: GI
# [2] = Cytotoxicity against human HCT116 cells assessed as growth inhibition at 3 ug/ml after 48 hrs by MTT assay relative to control; format: cell-based, HCT-116; conditions: read-out: GI
# [3] = Cytotoxicity against human A549 cells assessed as growth inhibition at 3 ug/ml after 48 hrs by MTT assay relative to control; format: cell-based; conditions: read-out: GI
# [4] = tested on: Mycobacterium tuberculosis; assay: Antimycobacterial activity against dormant state of Mycobacterium tuberculosis H37Ra assessed as growth inhibition at 3 ug/ml after 12 days by XTT reduction menadione assay relative to control; format: functional; conditions: 288 h, read-out: GI
# [5] = Cytotoxicity against human A549 cells assessed as growth inhibition at 10 ug/ml after 48 hrs by MTT assay relative to control; format: cell-based; conditions: read-out: GI
# [6] = Cytotoxicity against human HCT116 cells assessed as growth inhibition at 10 ug/ml after 48 hrs by MTT assay relative to control; format: cell-based, HCT-116; conditions: read-out: GI
# [7] = Cytotoxicity against human MCF7 cells assessed as growth inhibition at 10 ug/ml after 48 hrs by MTT assay relative to control; format: cell-based; conditions: read-out: GI
# [8] = tested on: Mycobacterium tuberculosis; assay: Antimycobacterial activity against dormant state of Mycobacterium tuberculosis H37Ra by two fold dilution method; format: functional
# [9] = tested on: Mycobacterium tuberculosis; assay: Antimycobacterial activity against dormant state of Mycobacterium tuberculosis H37Ra assessed as growth inhibition at 10 ug/ml after 12 days by XTT reduction menadione assay relative to control; format: functional; conditions: 288 h, read-out: GI
# [10] = Cytotoxicity against human MCF7 cells assessed as growth inhibition at 3 ug/ml after 48 hrs by MTT assay relative to control; format: cell-based; conditions: read-out: GI
# [11] = Cytotoxicity against human MCF7 cells assessed as growth inhibition at 30 ug/ml after 48 hrs by MTT assay relative to control; format: cell-based; conditions: read-out: GI
# [12] = Cytotoxicity against human A549 cells assessed as growth inhibition at 30 ug/ml after 48 hrs by MTT assay relative to control; format: cell-based; conditions: read-out: GI
# [13] = tested on: Mycobacterium tuberculosis; assay: Antimycobacterial activity against dormant state of Mycobacterium tuberculosis H37Ra assessed as growth inhibition at 30 ug/ml after 12 days by XTT reduction menadione assay relative to control; format: functional; conditions: 288 h, read-out: GI
# A549 = assay: (§1) Cytotoxicity against human A549 cells assessed as growth inhibition after 48 hrs by MTT assay; format: cell-based; conditions: a549, 48 h
# [14] = as §1; format: cell-based; conditions: A549 cells
# Pseudomonas fluorescens = assay: Antibacterial activity against Pseudomonas fluorescens ATCC 13525 after 8 hrs; format: functional; conditions: ATCC 13525, 8 h
# Escherichia coli = assay: Antibacterial activity against Escherichia coli ATCC […] after 8 hrs; format: functional
# Staphylococcus aureus = assay: Antibacterial activity against Staphylococcus aureus ATCC 29213 after 12 hrs; format: functional; conditions: ATCC 29213, 12 h
# HCT-116 = assay: (§2) Cytotoxicity against human HCT116 cells assessed as growth inhibition after 48 hrs by MTT assay; format: cell-based; conditions: hct-116, 48 h
# [15] = as §2; format: cell-based, HCT-116; conditions: HCT116 cells
# Bacillus subtilis = assay: Antibacterial activity against Bacillus subtilis ATCC 23857 after 12 hrs; format: functional; conditions: ATCC 23857, 12 h
# MCF7 = assay: (§3) Cytotoxicity against human MCF7 cells assessed as growth inhibition after 48 hrs by MTT assay; format: cell-based; conditions: mcf7, 48 h
# [16] = as §3; format: cell-based; conditions: MCF7 cells
Compound,"inhibition at 48 h, 30 ug/ml [1] [%]","inhibition at 48 h, 3 ug/ml [2] [%]","inhibition at 48 h, 3 ug/ml [3] [%]",inhibition of growth at 3 µg/mL [4] [%],"inhibition at 48 h, 10 ug/ml [5] [%]","inhibition at 48 h, 10 ug/ml [6] [%]","inhibition at 48 h, 10 ug/ml [7] [%]",MIC50 [8] [µg/mL],MIC90 [8] [µg/mL],inhibition of growth at 10 µg/mL [9] [%],"inhibition at 48 h, 3 ug/ml [10] [%]","inhibition at 48 h, 30 ug/ml [11] [%]","inhibition at 48 h, 30 ug/ml [12] [%]",inhibition of growth at 30 µg/mL [13] [%],also measured
O=C1/C(=C/c2cc3ccccc3nc2Cl)CNC/C1=C\c1cc2ccccc2nc1Cl,0,0,0,9.6,0,0,23.2,> 30,> 30,43.6,22.2,26.3,-14.1,33.3,–
CN1C/C(=C\c2cc3cc(Cl)ccc3nc2Cl)C(=O)/C(=C/c2cc3cc(Cl)ccc3nc2Cl)C1,11.7,2,0,35.4,48.9,11.9,42.8,> 30,> 30,7.2,22.8,58.7,48.9,43.1,GI90 (A549): > 100 µg/mL; GI50 at 48 h [14]: > 100 µg/mL; MIC50 (Pseudomonas fluorescens): > 30 µg/mL; MIC90 (Pseudomonas fluorescens): > 30 µg/mL; MIC50 (Escherichia coli): > 30 µg/mL; MIC90 (Escherichia coli): > 30 µg/mL; MIC50 (Staphylococcus aureus): > 30 µg/mL; MIC90 (Staphylococcus aureus): > 30 µg/mL; GI90 (HCT-116): > 100 µg/mL; GI50 at 48 h [15]: > 100 µg/mL; MIC50 (Bacillus subtilis): > 30 µg/mL; MIC90 (Bacillus subtilis): > 30 µg/mL; GI90 (MCF7): > 100 µg/mL; GI50 at 48 h [16]: 29.8 µg/mL
O=C1/C(=C/c2cc3cc(Cl)ccc3nc2Cl)CNC/C1=C\c1cc2cc(Cl)ccc2nc1Cl,-14.5,-18.3,2.3,23.7,0,-22.2,22.8,27.8,> 30,24.5,14.3,50,-12,53.8,–
Cc1cccc2cc(/C=C3\CN(C)C/C(=C\c4cc5cccc(C)c5nc4Cl)C3=O)c(Cl)nc12,1.6,-4.3,-11,22.4,0,4.1,0,27,> 30,15.3,0,0,-20.4,51.5,–
Cc1ccc2nc(Cl)c(/C=C3\CN(C)C/C(=C\c4cc5cc(C)ccc5nc4Cl)C3=O)cc2c1,16.5,12.5,0,-18.6,0,10.5,18.7,> 30,> 30,15.6,1.7,44.8,0,36.8,–
Cc1cccc2cc(/C=C3\CNC/C(=C\c4cc5cccc(C)c5nc4Cl)C3=O)c(Cl)nc12,13.7,3.2,0,4.6,0,10.4,0,> 30,> 30,32.7,0,0,-13.9,12.6,–
CN1C/C(=C\c2cc3cc(F)ccc3nc2Cl)C(=O)/C(=C/c2cc3cc(F)ccc3nc2Cl)C1,12.7,-0.4,0,39.7,0,10.3,-0.6,> 30,> 30,14.7,7.8,32.3,0,34.1,–
Cc1ccc2nc(Cl)c(/C=C3\CNC/C(=C\c4cc5cc(C)ccc5nc4Cl)C3=O)cc2c1,21.8,5.5,-18.7,9.9,0,16.3,17.7,> 30,> 30,28.5,0.9,14.2,0,34.4,–
COc1ccc2nc(Cl)c(/C=C3\CN(C)C/C(=C\c4cc5cc(OC)ccc5nc4Cl)C3=O)cc2c1,10.2,-2.1,0,52,0,12.2,-7.4,> 30,> 30,-5.8,-7.1,39,0,-0.8,–
NC[C@H]1O[C@H](O[C@H]2[C@H](O)[C@@H](O[C@H]3O[C@H](CO)[C@@H](O)[C@H](N)[C@H]3O)[C@H](N)C[C@@H]2N)[C@H](O)[C@@H](O)[C@@H]1O [KANAMYCIN],–,–,–,–,–,–,–,–,–,–,–,–,–,–,MIC50 (Staphylococcus aureus): > 30 µg/mL; MIC90 (Staphylococcus aureus): 16 µg/mL
CC(=O)O[C@H]1C(=O)[C@@]2(C)[C@H]([C@H](OC(=O)c3ccccc3)[C@]3(O)C[C@H](OC(=O)[C@H](O)[C@@H](NC(=O)c4ccccc4)c4ccccc4)C(C)=C1C3(C)C)[C@]1(OC(C)=O)CO[C@@H]1C[C@@H]2O [PACLITAXEL],–,–,–,–,–,–,–,–,–,–,–,–,–,–,GI90 (A549): 0.0706 µg/mL; GI90 (HCT-116): 5.715 µg/mL; GI50 at 48 h [15]: 0.128 µg/mL; GI90 (MCF7): 0.075 µg/mL
